Source: patent US20230340011A1 (Asteroid Therapeutics, priority 2022, published 2023)

Each molecule was assayed against SREBP-2 (Homo sapiens (Human), UniProt Q12772) (assay: In vitro assay SREBP-2: PathHunter U2OS SREBP-2 Nuclear Translocation Cell Line, U18666A-stimulated). Conditions: PathHunter U2OS SREBP-2 nuclear translocation cells, U18666A 10 μM, overnight (16 hours).
Assay type: cell-based
`Cc1ncccc1O[C@@H](C)[C@H]1CC[C@H]2[C@@H]3CC=C4C[C@@H](O)CC[C@]4(C)[C@H]3CC[C@]12C` [Example 430, (1S,3aS,3bS,7S,9aR,9bS,11aS)-9a,11a-dimethyl-1-[(1S)-1-[(2-methylpyridin-3-yl)oxy]ethyl]-1H,2H,3H,3aH,3bH,4H,6H,7H,8H,9H,9aH,9bH,10H,11H,11aH-cyclopenta[a]phenanthren-7-ol] gave an IC50 of 0.25 to 1 µM. `C[C@H](CCC(=O)N1CC[C@H](Nc2ccncc2)C1)[C@H]1CC[C@H]2[C@@H]3CC=C4C[C@@H](O)CC[C@]4(C)[C@H]3CC[C@]12C` [Example 530, (4R)-4-[(1R,3aS,3bS,7S,9aR,9bS,11aR)-7-hydroxy-9a,11a-dimethyl-1H,2H,3H,3aH,3bH,4H,6H,7H,8H,9H,9aH,9bH,10H,11H,11aH-cyclopenta[a]phenanthren-1-yl]-1-[(3S)-3-[(pyridin-4-yl)amino]pyrrolidin-1-yl]pentan-1-one] gave an IC50 of 0.25 to 1 µM. In the case of `C[C@H](CCC(=O)N(C)C)[C@H]1CC[C@H]2[C@@H]3CC=C4C[C@H](O)CC[C@]4(C)[C@H]3CC[C@]12C` [Example 122, (R)-4-((3R,8S,9S,10R,13R,14S,17R)-3-hydroxy-10,13-dimethyl-2,3,4,7,8,9,10,11,12,13,14,15,16,17-tetradecahydro-1H-cyclopenta[a]phenanthren-17-yl)-N,N-dimethylpentanamide], the IC50 is reported as > 10 µM. Work on `C[C@H](Oc1cnccc1CO)[C@H]1CC[C@H]2[C@@H]3CC=C4C[C@@H](O)CC[C@]4(C)[C@H]3CC[C@]12C` [Example 437, (3S,8S,9S,10R,13S,14S,17S)-17-((S)-1-((4-(hydroxymethyl)pyridin-3-yl)oxy)ethyl)-10,13-dim ethyl-2,3,4,7,8,9,10,11,12,13,14,15,16,17-tetradecahydro-1H-cyclopenta[a]phenanthren-3-ol] yielded an IC50 of 0.25 to 1 µM. For `C#CC1(OC)CCN(C(=O)CC[C@@H](C)[C@H]2CC[C@H]3[C@@H]4CC=C5C[C@@H](O)CC[C@]5(C)[C@H]4CC[C@]23C)CC1` [Example 330, (R)-1-(4-ethynyl-4-methoxypiperidin-1-yl)-4-((3S,8S,9S,10R,13R,14S,17R)-3-hydroxy-10,13-dimethyl-2,3,4,7,8,9,10,11,12,13,14,15,16,17-tetradecahydro-1H-cyclopenta[a]phenanthren-17-yl)pentan-1-one], the IC50 was < 0.25 µM. With `Cc1ccc(O[C@@H](C)[C@H]2CC[C@H]3[C@@H]4CC=C5C[C@@H](O)CC[C@]5(C)[C@H]4CC[C@]23C)cn1` [Example 273, (1S,3aS,3bS,7S,9aR,9bS,11aS)-9a,11a-dimethyl-1-[(1S)-1-[(6-methylpyridin-3-yl)oxy]ethyl]-1H,2H,3H,3aH,3bH,4H,6H,7H,8H,9H,9aH,9bH,10H,11H,11aH-cyclopenta[a]phenanthren-7-ol] the IC50 was < 0.25 µM. For `CNC(=O)c1ncccc1O[C@@H](C)[C@H]1CC[C@H]2[C@@H]3CC=C4C[C@@H](O)CC[C@]4(C)[C@H]3CC[C@]12C` [Example 267, 3-((S)-1-((3S,8S,9S,10R,13S,14S,17S)-3-hydroxy-10,13-dimethyl-2,3,4,7,8,9,10,11,12,13,14,15,16,17-tetradecahydro-1H-cyclopenta[a]phenanthren-17-yl)ethoxy)-N-methylpicolinamide], the IC50 was 0.25 to 1 µM. `CC(C)CC1(O)CCN(C(=O)CC[C@@H](C)[C@H]2CC[C@H]3[C@@H]4CC=C5C[C@@H](O)CC[C@]5(C)[C@H]4CC[C@]23C)CC1` [Example 93, (R)-4-((3S,8S,9S,10R,13R,14S,17R)-3-hydroxy-10,13-dimethyl-2,3,4,7,8,9,10,11,12,13,14,15,16,17-tetradecahydro-1H-cyclopenta[a]phenanthren-17-yl)-1-(4-hydroxy-4-isobutylpiperidin-1-yl) pentan-1-one] was tested, and the IC50 was < 0.25 µM. `C[C@H](Oc1ccccn1)[C@H]1CC[C@H]2[C@@H]3CC=C4C[C@@H](O)CC[C@]4(C)[C@H]3CC[C@]12C` [Example 381, (3S,8S,9S,10R,13S,14S,17S)-10,13-dimethyl-17-((S)-1-(pyridin-2-yloxy)ethyl)-2,3,4,7,8,9,10,11,12,13,14,15,16,17-tetradecahydro-1H-cyclopenta[a]phenanthren-3-ol] was tested, and the IC50 was 1 to 10 µM. In the case of `CC(=O)N1CC2(C1)CN(C(=O)CC[C@@H](C)[C@H]1CC[C@H]3[C@@H]4CC=C5C[C@@H](O)CC[C@]5(C)[C@H]4CC[C@]13C)C2` [Example 328, (4R)-4-[(1R,3aS,3bS,7S,9aR,9bS,11aR)-7-hydroxy-9a,11a-dimethyl-1H,2H,3H,3aH,3bH,4H,6H,7H,8H,9H,9aH,9bH,10H,11H,11aH-cyclopenta[a]phenanthren-1-yl]-1-{6-acetyl-2,6-diazaspiro[3.3]heptan-2-yl}pentan-1-one], the IC50 is reported as 0.25 to 1 µM. In the case of `CC[C@H]1NC[C@@H]2CON(C(=O)CC[C@@H](C)[C@H]3CC[C@H]4[C@@H]5CC=C6C[C@@H](O)CC[C@]6(C)[C@H]5CC[C@]34C)[C@@H]21` [Example 47, (R)-1-((3aS,6R,6aS)-6-ethylhexahydro-1H-pyrrolo[3,4-c]isoxazol-1-yl)-4-((3S,8S,9S,10R,13R,14S,17R)-3-hydroxy-10,13-dimethyl-2,3,4,7,8,9,10,11,12,13,14,15,16,17-tetradecahydro-1H-cyclopenta[a]phenanthren-17-yl)pentan-1-one], the IC50 is reported as 0.25 to 1 µM. For `C[C@H](CCC(=O)N1CCC(O)(C(F)F)CC1)[C@H]1CC[C@H]2[C@@H]3CC=C4C[C@@H](O)CC[C@]4(C)[C@H]3CC[C@]12C` [Example 128, (R)-1-(4-(difluoromethyl)-4-hydroxypiperidin-1-yl)-4-((3S,8S,9S,10R,13R,14S,17R)-3-hydroxy-10,13-dimethyl-2,3,4,7,8,9,10,11,12,13,14,15,16,17-tetradecahydro-1H-cyclopenta[a]phenanthren-17-yl)pentan-1-one], the IC50 was < 0.25 µM. `C[C@H](CCC(=O)NCC(=O)O)[C@H]1CC[C@H]2[C@@H]3CC=C4C[C@@H](O)CC[C@]4(C)[C@H]3CC[C@]12C` [Example 107, ((R)-4-((3S,8S,9S,10R,13R,14S,17R)-3-hydroxy-10,13-dimethyl-2,3,4,7,8,9,10,11,12,13,14,15,16,17-tetradecahydro-1H-cyclopenta[a]phenanthren-17-yl)pentanoyl)glycine] was tested, and the IC50 was > 10 µM. With `CNC(=O)N[C@H]1CCN(C(=O)CC[C@@H](C)[C@H]2CC[C@H]3[C@@H]4CC=C5C[C@@H](O)CC[C@]5(C)[C@H]4CC[C@]23C)C1` [Example 533, 1-((S)-1-((R)-4-((3S,8S,9S,10R,13R,14S,17R)-3-hydroxy-10,13-dimethyl-2,3,4,7,8,9,10,11,12,13,14,15,16,17-tetradecahydro-1H-cyclopenta[a]phenanthren-17-yl)pentanoyl)pyrrolidin-3-yl)-3-methylurea] the IC50 was < 0.25 µM. With `CCC1(O)CCN(C(=O)CC[C@@H](C)[C@H]2CC[C@H]3[C@@H]4CC=C5C[C@@](C)(O)CC[C@]5(C)[C@H]4CC[C@]23C)CC1` [Example 371, (R)-1-(4-ethyl-4-hydroxypiperidin-1-yl)-4-((3S,8S,9S,10R,13R,14S,17R)-3-hydroxy-3,10,13-trimethyl-2,3,4,7,8,9,10,11,12,13,14,15,16,17-tetradecahydro-1H-cyclopenta[a]phenanthren-17-yl)pentan-1-one] the IC50 was 0.25 to 1 µM. `CNC(=O)c1cccc(OC[C@@H](C)[C@H]2CC[C@H]3[C@@H]4CC=C5C[C@@H](O)CC[C@]5(C)[C@H]4CC[C@]23C)n1` [Example 256, 6-((S)-2-((3S,8S,9S,10R,13S,14S,17R)-3-hydroxy-10,13-dimethyl-2,3,4,7,8,9,10,11,12,13,14,15,16,17-tetradecahydro-1H-cyclopenta[a]phenanthren-17-yl)propoxy)-N-methylpicolinamide] showed an IC50 of 0.25 to 1 µM. `COC(=O)NC[C@@H](C)[C@H]1CC[C@H]2[C@@H]3CC=C4C[C@@H](O)CC[C@]4(C)[C@H]3CC[C@]12C` [Example 463, methyl ((S)-2-((3S,8S,9S,10R,13S,14S,17R)-3-hydroxy-10,13-dimethyl-2,3,4,7,8,9,10,11,12,13,14,15,16,17-tetradecahydro-1H-cyclopenta[a]phenanthren-17-yl)propyl)carbamate] was tested, and the IC50 was 0.25 to 1 µM. `Cc1ccc(OC[C@@H](C)[C@H]2CC[C@H]3[C@@H]4CC=C5C[C@@H](O)CC[C@]5(C)[C@H]4CC[C@]23C)nc1` [Example 263, (3S,8S,9S,10R,13S,14S,17R)-10,13-dimethyl-17-((S)-1-((5-methylpyridin-2-yl)oxy)propan-2-yl)-2,3,4,7,8,9,10,11,12,13,14,15,16,17-tetradecahydro-1H-cyclopenta[a]phenanthren-3-ol] was tested, and the IC50 was 0.25 to 1 µM. `CON(C)C(=O)CC[C@@H](C)[C@H]1CC[C@H]2[C@@H]3CC=C4C[C@@H](O)CC[C@]4(C)[C@H]3CC[C@]12C` [Example 1, (R)-4-((3S,8S,9S,10R,13R,14S,17R)-3-hydroxy-10,13-dimethyl-2,3,4,7,8,9,10,11,12,13,14,15,16,17-tetradecahydro-1H-cyclopenta[a]phenanthren-17-yl)-N-methoxy-N-methylpentanamide] was tested, and the IC50 was < 0.25 µM. `C[C@H](CCC(=O)N1CC[C@H](NC(=O)N(C)C)C1)[C@H]1CC[C@H]2[C@@H]3CC=C4C[C@@H](O)CC[C@]4(C)[C@H]3CC[C@]12C` [Example 534, 3-((S)-1-((R)-4-((3S,8S,9S,10R,13R,14S,17R)-3-hydroxy-10,13-dimethyl-2,3,4,7,8,9,10,11,12,13,14,15,16,17-tetradecahydro-1H-cyclopenta[a]phenanthren-17-yl)pentanoyl)pyrrolidin-3-yl)-1,1-dimethylurea] was tested, and the IC50 was < 0.25 µM. `C[C@H](CCC(=O)N1CC[C@H](Nc2ccncn2)C1)[C@H]1CC[C@H]2[C@@H]3CC=C4C[C@@H](O)CC[C@]4(C)[C@H]3CC[C@]12C` [Example 531, (R)-4-((3S,8S,9S,10R,13R,14S,17R)-3-hydroxy-10,13-dimethyl-2,3,4,7,8,9,10,11,12,13,14,15,16,17-tetradecahydro-1H-cyclopenta[a]phenanthren-17-yl)-1-((S)-3-(pyrimidin-4-ylamino)pyrrolidin-1-yl)pentan-1-one] was tested, and the IC50 was < 0.25 µM.
